According to article PMC10997755, “Discovery of a small-molecule inhibitor that traps Polθ on DNA and synergizes with PARP inhibitors” (Nature Communications, 2024):
Where “and” joins values, the source holds several entries; their conditions need not be identical. Equal entries are not always repeated. Entries after “also recorded” stand apart in the source; their conditions may differ.

Key:
[1] = molecular target: T1, Polθ-pol (Homo sapiens, UniProt O75417); experiment: Cy5 fluorescence Polθ-pol DNA synthesis (strand displacement) IC50 assay; assay type: biochemical; settings: for IC50: Polθ-pol DNA synthesis, Cy5 fluorescence
T1 construct: purified recombinant human Polθ-pol (comprising amino acid residues 1792–2590); made in house
T1 sequence (O75417 1792-2590): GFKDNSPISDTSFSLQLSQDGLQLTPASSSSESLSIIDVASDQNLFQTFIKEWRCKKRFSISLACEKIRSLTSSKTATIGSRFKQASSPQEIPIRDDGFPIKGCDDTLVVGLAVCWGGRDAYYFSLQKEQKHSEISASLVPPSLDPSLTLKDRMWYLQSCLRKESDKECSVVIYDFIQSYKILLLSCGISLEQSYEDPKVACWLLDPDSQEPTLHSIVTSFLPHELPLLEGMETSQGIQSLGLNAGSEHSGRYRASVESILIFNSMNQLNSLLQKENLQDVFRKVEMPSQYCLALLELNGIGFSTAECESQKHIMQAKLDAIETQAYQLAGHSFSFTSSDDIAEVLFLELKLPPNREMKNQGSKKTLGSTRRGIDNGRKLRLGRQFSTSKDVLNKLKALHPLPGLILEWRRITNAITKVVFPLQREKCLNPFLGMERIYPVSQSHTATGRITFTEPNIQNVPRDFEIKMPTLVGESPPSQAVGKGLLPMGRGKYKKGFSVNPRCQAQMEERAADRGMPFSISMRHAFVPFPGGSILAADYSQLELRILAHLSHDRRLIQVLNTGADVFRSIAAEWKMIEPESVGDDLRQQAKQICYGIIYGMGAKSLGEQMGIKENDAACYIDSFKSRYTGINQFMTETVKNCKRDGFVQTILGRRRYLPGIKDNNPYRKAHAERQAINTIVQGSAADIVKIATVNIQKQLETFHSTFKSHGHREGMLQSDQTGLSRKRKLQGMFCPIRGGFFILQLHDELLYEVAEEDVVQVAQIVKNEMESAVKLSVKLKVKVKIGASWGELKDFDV
Summary of the method: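 Recombinant human Polθ-pol (aa 1792–2590, 5 nM) extends 60 nM Cy5/quencher primer-template with 50 uM dNTPs in 25 mM Tris pH 7.8, 10 mM MgCl2, 2.5% DMSO at 37 °C. After 18 min, stopped with 20 mM EDTA; Cy5 fluorescence read, 7-point series in triplicate, inhibition from the mean.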

[2] = test system: DLD1 BRCA2 -/- cells; experiment: Clonogenic assay; assay type: cell-based; settings: for selective killing / synthetic lethality in BRCA2-null DLD1 cells: colony survival, versus BRCA2-WT; for Average number of colonies counted / Normalized (colonies): DLD1 BRCA2 NULL, 3 treatments were given; for average / percent suvival / replicate counts: DLD1-BRCA2 null cells
Summary of the method: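 Cells seeded at low density (300–1000 per well, by plate size and genotype), medium changed every 2 days, colonies grown 10–12 days. Fixed in water:ethanol:acetic acid, stained with 0.5% crystal violet, then counted; IC50 from ≥3 independent experiments, mean ± SEM.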

[3] = LogP; assay type: physicochemical; settings: method not stated
[4] = test system: DLD1 Parental cells; experiment: Clonogenic assay; assay type: cell-based; settings: DLD1 PARENTAL, 3 treatments were given
Method: Cells were plated on six or twelve or twenty-four well plates. In six well plate, 1000 cells/ well of BRCA2 -/-, BRCA1 -/-, PALB2 mut and 500 cells/ well of wildtype pair was plated; In twelve well plate, 600 cells/ well of BRCA2 -/-, BRCA1 -/-, PALB2 mut and 400 cells/ well of wildtype pair was plated; In twenty-four well plate, 500 cells/ well of BRCA2 -/-, BRCA1 -/-, PALB2 mut and 300 cells/ well of wildtype pair was plated. For MEFs, 300 cells per well in six-well plate were seeded. The medium was replaced every 2 days until the colonies were ready for staining in 10–12 days. For staining: Medium was removed from plates, and cells were rinsed with PBS. Fixation was carried out with—Water: Ethanol: Acetic acid (5:4:1) for 30 min followed by staining of colonies with 0.5% crystal violet in Water: Ethanol (3:2) for 2 h at room temperature. The plates were rinsed with water and left for drying overnight at room temperature. Colonies were then counted and IC50 was calculated using results from 3 or more independent experiments. Response curves are shown as mean colony formation +/- S.E.M.

[5] = 10 μM compound, 5 nM PolQ, 60 nM DNA, 18 min
[6] = RTX-152 1.25 micro M + OLA 3.125 nano M
[7] = RTX-152 1.25 micro M + OLA 6.25 nano M
[8] = RTX-152 1.25 micro M + OLA 12.50 nano M
[9] = RTX-152 1.25 micro M + OLA 25.00 nano M
[10] = RTX-152 1.25 micro M + OLA 50.00 nano M
[11] = RTX-152 1.25 micro M + OLA 100.00 nano M
[12] = RTX-152 1.25 micro M, OLA 0.00 nano M
[13] = RTX-152 2.5 micro M + OLA 3.125 nano M
[14] = RTX-152 2.5 micro M + OLA 6.25 nano M
[15] = RTX-152 2.5 micro M + OLA 12.50 nano M
[16] = RTX-152 2.5 micro M + OLA 25.00 nano M
[17] = RTX-152 2.5 micro M + OLA 50.00 nano M
[18] = RTX-152 2.5 micro M + OLA 100.00 nano M
[19] = RTX-152 2.5 micro M, OLA 0.00 nano M
[20] = RTX-152 5 micro M + OLA 3.125 nano M
[21] = RTX-152 5 micro M + OLA 6.25 nano M
[22] = RTX-152 5 micro M + OLA 12.50 nano M
[23] = RTX-152 5 micro M + OLA 25.00 nano M
[24] = RTX-152 5 micro M + OLA 50.00 nano M
[25] = RTX-152 5 micro M + OLA 100.00 nano M
[26] = RTX-152 5 micro M, OLA 0.00 nano M

## CN(C(=O)Oc1ccc(C(F)(F)F)cc1C(F)(F)F)c1ccc(F)cc1 [MC160385]
[1]
  improved potency relative to hit MC28003: ~ 18 fold
  IC50: 9 nM
[1]; [5]
  raw signal, Positive Control, Average: 21.00
  raw signal, Positive Control, Trial 1-3: 20.96 and 21.46 and 20.58
[1]; MC160385 0.0014 μM, 5 nM PolQ
  Cy5 fluorescence, Average of Trial 1-3: 363.79
[1]; MC160385 0.0041 μM
  activity at 0.0041 µM: 77.8%
  inhibition at 0.0041 µM: 22.2%
[1]; MC160385 0.0041 μM, 5 nM PolQ
  Cy5 fluorescence, Average of Trial 1-3: 309.29
[1]; MC160385 0.0123 μM
  activity at 0.0123 µM: 38.7%
  inhibition at 0.0123 µM: 61.3%
[1]; MC160385 0.0123 μM, 5 nM PolQ
  Cy5 fluorescence, Average of Trial 1-3: 203.69
[1]; MC160385 0.0370 μM
  activity at 0.037 µM: 3.23%
  inhibition at 0.037 µM: 96.8%
[1]; MC160385 0.0370 μM, 5 nM PolQ
  Cy5 fluorescence, Average of Trial 1-3: 109.39
[1]; MC160385 0.1111 μM
  activity at 0.1111 µM: -2.07%
  inhibition at 0.1111 µM: 102%
[1]; MC160385 0.1111 μM, 5 nM PolQ
  Cy5 fluorescence, Average of Trial 1-3: 94.78
[1]; MC160385 0.3333 μM
  activity at 0.3333 µM: -2.9%
  inhibition at 0.3333 µM: 103%
[1]; MC160385 0.3333 μM, 5 nM PolQ
  Cy5 fluorescence, Average of Trial 1-3: 92.26
[1]; MC160385 1.0000 μM
  activity at 1 µM: -1.58%
  inhibition at 1 µM: 102%
[1]; MC160385 1.0000 μM, 5 nM PolQ
  Cy5 fluorescence, Average of Trial 1-3: 95.83
[1]; MC160385 2 μM, sheet Fig. 1 b
  Positive Control fluorescence, Average: 100.15
[1]; MC160385 10 μM, 5 nM PolQ, 18 min, sheet Fig. 1 g
  Positive Control fluorescence, Average: 33.58
[2]
  selective killing / synthetic lethality in BRCA2-null DLD1 cells: failed to show selective killing; also recorded: failure
[3]
  logP: ~5.3

## CN1CCN(c2cc(C(F)(F)F)cc(C(F)(F)F)c2OC(=O)N(C)c2ccc(F)cc2)C1=O [RTx-152]
[1]
  IC50: 6 nM and 6.2 nM and 4 to 6 nM
[2]; 2.5 micro M
  Average number of colonies counted: 47.3333
  Normalized (colonies): 65.5172
[2]; 5 micro M
  Average number of colonies counted: 40.3333
  Normalized (colonies): 54.4828
[2]; 10 micro M
  Average number of colonies counted: 22.6667
  Normalized (colonies): 31.0345
[2]; 20 micro M
  Average number of colonies counted: 15
  Normalized (colonies): 20.6897
[2]; Homo sapiens, DLD-1, read-out: IC50 clonogenic survival
  IC50: ~6000 nM
[2]; [6]
  average: 78.6667
  percent suvival: 75.8842%
  replicate counts: 75 and 82 and 79
[2]; [7]
  average: 66.6667
  percent suvival: 64.3087%
  replicate counts: 67 and 70 and 63
[2]; [8]
  average: 40
  percent suvival: 38.5852%
  replicate counts: 36 and 44 and 40
[2]; [9]
  average: 32.6667
  percent suvival: 31.5113%
  replicate counts: 35 and 31 and 32
[2]; [10]
  average: 20
  percent suvival: 19.2926%
  replicate counts: 22 and 20 and 18
[2]; [11]
  average: 11
  percent suvival: 10.6109%
  replicate counts: 8 and 11 and 14
[2]; [12]
  average: 95
  percent suvival: 91.6399%
  replicate counts: 91 and 96 and 98
[2]; [13]
  average: 71
  percent suvival: 68.4887%
  replicate counts: 68 and 70 and 75
[2]; [14]
  average: 51
  percent suvival: 49.1961%
  replicate counts: 54 and 47 and 52
[2]; [15]
  average: 37.6667
  percent suvival: 36.3344%
  replicate counts: 35 and 40 and 38
[2]; [16]
  average: 21.6667
  percent suvival: 20.9003%
  replicate counts: 26 and 20 and 19
[2]; [17]
  average: 13
  percent suvival: 12.5402%
  replicate counts: 10 and 16 and 13
[2]; [18]
  average: 3.667
  percent suvival: 3.537%
  replicate counts: 7 and 2 (2×)
[2]; [19]
  average: 80
  percent suvival: 77.1704%
  replicate counts: 82 and 80 and 78
[2]; [20]
  average: 45.3333
  percent suvival: 43.7299%
  replicate counts: 49 and 42 and 45
[2]; [21]
  average: 38
  percent suvival: 36.6559%
  replicate counts: 38 and 32 and 44
[2]; [22]
  average: 19.6667
  percent suvival: 18.9711%
  replicate counts: 19 and 22 and 18
[2]; [23]
  average: 7.333
  percent suvival: 7.074%
  replicate counts: 10 and 8 and 4
[2]; [24]
  average: 1.667
  percent suvival: 1.608%
  replicate counts: 3 and 1 (2×)
[2]; [25]
  average: 1
  percent suvival: 0.9646%
  replicate counts: 1 and 0 and 2
[2]; [26]
  average: 73
  percent suvival: 70.418%
  replicate counts: 70 and 78 and 71
[2]; clonogenic survival
  potency in BRCA2-null cells compared with RTx-161: moderately higher IC50
[2]; clonogenic survival, Combenefit synergy
  combination with Olaparib: synergistic activity
[2]
  selective killing / synthetic lethality in BRCA2-null DLD1 cells: selective killing; also recorded: induction of synthetic lethality
[4]; 2.5 micro M
  Average number of colonies counted: 115
  Normalized (colonies): 97.4576
[4]; 5 micro M
  Normalized (colonies): 97.4576
[4]; 10 micro M
  Normalized (colonies): 95.7627
[4]; 20 micro M
  Average number of colonies counted: 113
  Normalized (colonies): 95.7627
[3]
  logP: 4.2
